These results are taken from PMC11580984 (bioRxiv, 2024).

Numbered stars: 1 amine (or outer) side, 2 acyl side, 3 side chain; on linkers, the order of the positions; unused ones are H or OH. Bridge positions count the residues as written; N and C are the ends. Square brackets hold non-standard residues; d marks the D form. Peptide text beside a SMILES is read from it. X1 = O=S(=O)(F)Oc1cc(C[*:1])cc(C[*:2])c1; Pra = C#CC[C@H](N)C(=O)O

The assay addresses full-length spike Omicron BA2 variant (Severe acute respiratory syndrome coronavirus 2, UniProt P0DTC2, A27S/A892P/A899P/A942P/D405N/D614G/D796Y/DEL24-26/E484A/F817P/G142D/G339D/H655Y/K417N/K986P/N440K/N501Y/N679K/N764K/N969K/P681H/Q493R/Q498R/Q954H/R408S/R683A/R685A/S371F/S373P/S375F/S477N/T19I/T376A/T478K/V213G/V987P/Y505H). It is filed as binding, SARS-CoV-2.
In the case of `C#CC[C@H](N)C(=O)N[C@@H](CCC(N)=O)C(=O)N[C@H]1CSCc2cc(cc(OS(=O)(=O)F)c2)CSC[C@@H](C(=O)NCC(N)=O)NC(=O)[C@H](CC(C)C)NC(=O)[C@H](C(C)C)NC(=O)[C@H](Cc2ccc(O)cc2)NC(=O)[C@H](CC(C)C)NC(=O)[C@H](CC(=O)O)NC(=O)[C@H](CCC(N)=O)NC(=O)[C@H](C(C)C)NC1=O` [CP_SW3A] (H-[Pra]QCVQDLYVLCG-NH2; linker 3-11 via X1), the “spike labeling” value is “highest gel labeling intensity”.

In the case of `C#CC[C@H](NC(=O)[C@H](CCC(N)=O)NC(=O)[C@@H]1CSCc2cc(cc(OS(=O)(=O)F)c2)CSC[C@H](NC(=O)CN)C(=O)N[C@@H](CC(C)C)C(=O)N[C@@H](C(C)C)C(=O)N[C@@H](Cc2ccc(O)cc2)C(=O)N[C@@H](CC(C)C)C(=O)N[C@@H](CC(=O)O)C(=O)N[C@@H](CCC(N)=O)C(=O)N[C@@H](C(C)C)C(=O)N1)C(N)=O` [CP_SW3A_S1] (H-GCLVYLDQVCQ[Pra]-NH2; linker 2-10 via X1), the “spike labeling” value is “dramatically reduced labeling”. For `C#CC[C@H](N)C(=O)N[C@@H](CCC(N)=O)C(=O)N[C@H]1CSCc2cc(cc(OS(=O)(=O)F)c2)CSC[C@@H](C(=O)NCC(N)=O)NC(=O)[C@H](C(C)C)NC(=O)[C@H](CCC(N)=O)NC(=O)[C@H](CC(=O)O)NC(=O)[C@H](CC(C)C)NC(=O)[C@H](Cc2ccc(O)cc2)NC(=O)[C@H](C(C)C)NC(=O)[C@H](CC(C)C)NC1=O` [CP_SW3A_S2] (H-[Pra]QCLVYLDQVCG-NH2; linker 3-11 via X1), the “spike labeling” value is “dramatically reduced labeling”.
